What was measured:
Ephrin type-A receptor 2 = Ephrin type-A receptor 2 (Mus musculus, UniProt Q03145); experiment: Displacement of biotinylated ephrin-A1-Fc from recombinant mouse c-terminal His6-tagged EphA2 Fc (Ala22 to Ala535 residues) preincubated for 1 hr followed by ephrin-A1-FC addition and measured after 4 hrs by ELISA
Ephrin type-A receptor 4 = Ephrin type-A receptor 4 (Mus musculus, UniProt Q03137); experiment: Displacement of biotinylated ephrin-A1-Fc from mouse EphA4 Fc preincubated for 1 hr followed by ephrin-A1-FC addition and measured after 4 hrs by ELISA
Sequence of Ephrin type-A receptor 4 (Q03137 whole entry): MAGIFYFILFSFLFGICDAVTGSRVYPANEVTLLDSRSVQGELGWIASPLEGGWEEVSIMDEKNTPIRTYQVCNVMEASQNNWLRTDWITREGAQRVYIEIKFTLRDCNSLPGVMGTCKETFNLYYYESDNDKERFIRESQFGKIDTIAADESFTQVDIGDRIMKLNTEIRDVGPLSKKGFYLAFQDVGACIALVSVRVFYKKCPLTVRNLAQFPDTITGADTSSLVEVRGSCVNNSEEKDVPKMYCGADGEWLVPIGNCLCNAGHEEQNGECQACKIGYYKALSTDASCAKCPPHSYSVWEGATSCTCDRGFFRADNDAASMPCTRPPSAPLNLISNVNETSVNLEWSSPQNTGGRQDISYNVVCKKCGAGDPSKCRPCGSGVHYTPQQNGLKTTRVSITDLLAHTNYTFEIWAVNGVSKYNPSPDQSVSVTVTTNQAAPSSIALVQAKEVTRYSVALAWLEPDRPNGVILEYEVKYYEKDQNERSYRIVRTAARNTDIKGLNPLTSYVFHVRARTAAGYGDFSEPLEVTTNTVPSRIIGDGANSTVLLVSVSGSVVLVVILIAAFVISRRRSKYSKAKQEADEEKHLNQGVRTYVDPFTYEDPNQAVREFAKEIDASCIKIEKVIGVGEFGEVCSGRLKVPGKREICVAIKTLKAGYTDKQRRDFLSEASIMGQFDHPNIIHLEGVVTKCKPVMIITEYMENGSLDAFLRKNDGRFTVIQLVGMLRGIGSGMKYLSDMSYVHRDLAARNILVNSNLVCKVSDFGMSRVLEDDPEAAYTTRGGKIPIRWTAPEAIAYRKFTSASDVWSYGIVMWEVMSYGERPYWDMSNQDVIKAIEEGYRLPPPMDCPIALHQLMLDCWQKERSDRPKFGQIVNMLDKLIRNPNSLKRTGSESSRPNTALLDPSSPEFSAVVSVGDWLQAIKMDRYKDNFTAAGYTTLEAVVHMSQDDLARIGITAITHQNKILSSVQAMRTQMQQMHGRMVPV

Ephrin type-A receptor 7 = Ephrin type-A receptor 7 (Mus musculus, UniProt Q61772); experiment: Displacement of biotinylated ephrin-A1-Fc from mouse EphA7 Fc preincubated for 1 hr followed by ephrin-A1-FC addition and measured after 4 hrs by ELISA
Sequence of Ephrin type-A receptor 7 (Q61772 whole entry): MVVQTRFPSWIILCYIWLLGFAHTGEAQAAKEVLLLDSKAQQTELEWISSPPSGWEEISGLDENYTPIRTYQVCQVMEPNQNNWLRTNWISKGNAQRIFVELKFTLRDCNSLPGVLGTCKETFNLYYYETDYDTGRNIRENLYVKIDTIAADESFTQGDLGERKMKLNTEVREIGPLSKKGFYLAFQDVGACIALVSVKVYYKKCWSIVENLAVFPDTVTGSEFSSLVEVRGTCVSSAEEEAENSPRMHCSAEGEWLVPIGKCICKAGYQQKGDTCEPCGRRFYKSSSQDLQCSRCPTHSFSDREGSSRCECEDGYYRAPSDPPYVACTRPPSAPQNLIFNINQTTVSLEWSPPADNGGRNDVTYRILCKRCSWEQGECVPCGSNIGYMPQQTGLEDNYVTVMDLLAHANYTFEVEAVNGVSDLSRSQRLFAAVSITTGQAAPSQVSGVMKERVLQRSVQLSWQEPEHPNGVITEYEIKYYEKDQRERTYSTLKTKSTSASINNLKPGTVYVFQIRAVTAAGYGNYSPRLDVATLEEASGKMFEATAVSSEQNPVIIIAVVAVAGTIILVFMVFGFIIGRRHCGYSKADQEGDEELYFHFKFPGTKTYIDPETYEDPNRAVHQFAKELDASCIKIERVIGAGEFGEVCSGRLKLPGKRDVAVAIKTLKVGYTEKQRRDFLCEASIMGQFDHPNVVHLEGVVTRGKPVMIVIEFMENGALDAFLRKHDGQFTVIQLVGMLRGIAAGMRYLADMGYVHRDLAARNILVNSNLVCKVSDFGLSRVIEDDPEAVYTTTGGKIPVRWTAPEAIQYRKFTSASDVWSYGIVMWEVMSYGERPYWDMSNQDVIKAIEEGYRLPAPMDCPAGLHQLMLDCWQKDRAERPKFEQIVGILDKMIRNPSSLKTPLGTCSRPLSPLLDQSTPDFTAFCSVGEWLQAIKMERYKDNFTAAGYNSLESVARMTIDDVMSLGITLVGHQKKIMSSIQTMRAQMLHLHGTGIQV

Ephrin type-B receptor 2 = target: T1, Ephrin type-B receptor 2 (Mus musculus, UniProt P54763); experiment: Displacement of biotinylated ephrin-B1-Fc from mouse EphB2 Fc preincubated for 1 hr followed by ephrin-B1-FC addition and measured after 4 hrs by ELISA
T1 sequence (P54763 whole entry): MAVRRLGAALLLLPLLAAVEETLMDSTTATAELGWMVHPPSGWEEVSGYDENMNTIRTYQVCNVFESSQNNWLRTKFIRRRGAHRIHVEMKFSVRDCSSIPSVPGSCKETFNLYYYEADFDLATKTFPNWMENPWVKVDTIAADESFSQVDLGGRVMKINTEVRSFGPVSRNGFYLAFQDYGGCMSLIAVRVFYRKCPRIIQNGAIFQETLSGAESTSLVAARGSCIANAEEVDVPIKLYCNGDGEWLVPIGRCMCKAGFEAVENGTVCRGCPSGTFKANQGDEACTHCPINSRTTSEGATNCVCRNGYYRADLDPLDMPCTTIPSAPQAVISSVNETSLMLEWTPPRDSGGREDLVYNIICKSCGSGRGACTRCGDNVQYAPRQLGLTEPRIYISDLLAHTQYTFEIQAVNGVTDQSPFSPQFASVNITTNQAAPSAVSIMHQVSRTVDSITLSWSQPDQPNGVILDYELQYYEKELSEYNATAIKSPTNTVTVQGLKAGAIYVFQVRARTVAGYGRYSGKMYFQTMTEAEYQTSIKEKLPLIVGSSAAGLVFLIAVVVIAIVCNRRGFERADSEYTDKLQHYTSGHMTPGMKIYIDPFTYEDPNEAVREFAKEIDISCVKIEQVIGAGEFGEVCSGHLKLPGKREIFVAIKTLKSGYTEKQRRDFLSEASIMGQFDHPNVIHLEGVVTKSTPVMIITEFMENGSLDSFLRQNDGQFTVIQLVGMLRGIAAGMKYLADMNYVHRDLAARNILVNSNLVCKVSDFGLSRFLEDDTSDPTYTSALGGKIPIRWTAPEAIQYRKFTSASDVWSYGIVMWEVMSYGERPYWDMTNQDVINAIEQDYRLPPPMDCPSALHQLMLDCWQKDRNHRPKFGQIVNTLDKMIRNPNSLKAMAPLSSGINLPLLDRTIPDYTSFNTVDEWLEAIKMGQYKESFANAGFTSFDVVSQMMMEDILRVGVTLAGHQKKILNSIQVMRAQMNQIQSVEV

Ephrin type-B receptor 6 = target: T2, Ephrin type-B receptor 6 (Mus musculus, UniProt O08644); experiment: Displacement of biotinylated ephrin-B1-Fc from mouse EphB6 Fc preincubated for 1 hr followed by ephrin-B1-FC addition and measured after 4 hrs by ELISA
T2 sequence (O08644 whole entry): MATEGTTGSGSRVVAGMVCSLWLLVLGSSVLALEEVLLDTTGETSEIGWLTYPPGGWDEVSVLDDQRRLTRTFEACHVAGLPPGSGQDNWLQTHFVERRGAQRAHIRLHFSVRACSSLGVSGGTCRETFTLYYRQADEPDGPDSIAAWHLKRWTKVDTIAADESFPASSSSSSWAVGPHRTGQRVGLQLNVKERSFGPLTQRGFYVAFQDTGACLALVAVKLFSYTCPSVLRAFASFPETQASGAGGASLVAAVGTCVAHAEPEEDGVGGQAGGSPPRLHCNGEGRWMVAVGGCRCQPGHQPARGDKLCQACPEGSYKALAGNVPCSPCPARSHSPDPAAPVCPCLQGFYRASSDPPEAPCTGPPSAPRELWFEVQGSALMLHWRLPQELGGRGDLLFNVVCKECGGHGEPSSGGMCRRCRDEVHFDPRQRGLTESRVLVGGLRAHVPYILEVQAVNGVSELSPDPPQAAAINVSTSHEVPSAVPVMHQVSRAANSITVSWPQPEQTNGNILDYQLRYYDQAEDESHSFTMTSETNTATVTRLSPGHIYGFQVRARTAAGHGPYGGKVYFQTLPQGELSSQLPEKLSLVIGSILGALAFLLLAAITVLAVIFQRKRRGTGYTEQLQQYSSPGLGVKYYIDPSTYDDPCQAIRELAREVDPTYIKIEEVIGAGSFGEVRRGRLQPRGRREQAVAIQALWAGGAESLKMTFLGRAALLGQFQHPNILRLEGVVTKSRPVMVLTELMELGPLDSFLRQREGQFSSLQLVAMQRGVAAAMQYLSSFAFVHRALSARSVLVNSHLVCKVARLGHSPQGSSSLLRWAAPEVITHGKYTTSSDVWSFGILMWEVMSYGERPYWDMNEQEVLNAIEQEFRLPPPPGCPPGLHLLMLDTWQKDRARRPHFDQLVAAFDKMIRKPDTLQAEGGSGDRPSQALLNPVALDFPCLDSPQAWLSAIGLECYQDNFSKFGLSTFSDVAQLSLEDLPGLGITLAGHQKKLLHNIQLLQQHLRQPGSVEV

HUVEC [1] = experiment: Antiangiogenic activity in HUVEC assessed as reduction in number of polygons formation after 16 hrs by matrigel-based microscopic analysis; details: Homo sapiens
HUVEC [2] = experiment: Cytotoxicity against HUVEC cells upto 30 uM after 16 hrs by MTT assay; format: cell-based; details: human

Sequence of Ephrin type-A receptor 2 (Q03145 whole entry): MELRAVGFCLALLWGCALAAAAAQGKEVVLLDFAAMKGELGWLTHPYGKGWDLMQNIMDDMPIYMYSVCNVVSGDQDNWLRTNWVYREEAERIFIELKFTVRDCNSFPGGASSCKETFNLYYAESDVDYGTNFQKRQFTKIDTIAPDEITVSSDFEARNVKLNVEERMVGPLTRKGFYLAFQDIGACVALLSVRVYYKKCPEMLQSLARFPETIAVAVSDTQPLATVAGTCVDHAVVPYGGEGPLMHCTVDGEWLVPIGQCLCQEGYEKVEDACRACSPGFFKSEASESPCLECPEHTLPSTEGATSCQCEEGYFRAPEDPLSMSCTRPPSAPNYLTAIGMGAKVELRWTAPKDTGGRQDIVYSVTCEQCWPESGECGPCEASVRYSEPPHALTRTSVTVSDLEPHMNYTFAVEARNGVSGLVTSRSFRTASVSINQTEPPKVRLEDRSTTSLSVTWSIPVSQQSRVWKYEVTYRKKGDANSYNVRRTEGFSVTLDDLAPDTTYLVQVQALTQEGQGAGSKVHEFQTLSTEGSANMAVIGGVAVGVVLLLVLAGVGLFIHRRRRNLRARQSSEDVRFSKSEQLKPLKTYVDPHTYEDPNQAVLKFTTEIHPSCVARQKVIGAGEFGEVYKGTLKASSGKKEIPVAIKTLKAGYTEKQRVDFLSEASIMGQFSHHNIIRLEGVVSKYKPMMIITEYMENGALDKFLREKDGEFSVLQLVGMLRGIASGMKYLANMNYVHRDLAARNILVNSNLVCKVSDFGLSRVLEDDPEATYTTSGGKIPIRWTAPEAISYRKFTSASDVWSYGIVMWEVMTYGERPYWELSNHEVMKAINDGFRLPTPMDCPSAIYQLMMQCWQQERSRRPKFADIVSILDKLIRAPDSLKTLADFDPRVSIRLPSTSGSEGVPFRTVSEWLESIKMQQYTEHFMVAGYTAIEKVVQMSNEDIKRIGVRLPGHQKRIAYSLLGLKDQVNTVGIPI

With `CCNC(=O)O[C@@H]1CC[C@@]2(C)[C@H](CC[C@@H]3[C@@H]2CC[C@]2(C)[C@@H]([C@H](C)CCC(=O)N[C@H](CC(=O)O)Cc4c[nH]c5ccccc45)CC[C@@H]32)C1` the IC50 (Ephrin type-A receptor 2) was 0.95 µM, the IC50 (Ephrin type-A receptor 4) was 6.4 µM and the IC50 (Ephrin type-A receptor 7) was > 30 µM. For the same molecule, the IC50 (Ephrin type-B receptor 2) was 14 µM, the IC50 (Ephrin type-B receptor 6) was > 30 µM and the IC50 (HUVEC [1]) was 3 µM. The Activity (HUVEC [2]) was “Non-Toxic”.

From ChEMBL document CHEMBL4680187, “Optimization of EphA2 antagonists based on a lithocholic acid core led to the identification of UniPR505, a new 3α-carbamoyloxy derivative with antiangiogenetic properties” (Eur J Med Chem, 2020)
